According to US8030498B2, “Benzoylpyrazole compounds and herbicides containing them” (Ishihara Sangyo Kaisha, Ltd., priority 2005, dated 2011):

Key:
rice (Oryza sativa L.) = experiment: Test Example 1: foliar treatment, growth inhibition rate, rice; assay type: in vivo; conditions: visually observed 17th to 23rd day after application; for pest or weed control at 31 g/ha: Oryza sativa
In short: (§1)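 Seeds were sown in upland field soil in pots. At the target leaf stage (corn 2.0–3.5; greenfoxtail 1.0–3.0; rice 1.0–2.5; wheat 1.7–3.4), the formulated compound, diluted at a water volume of 500 L/ha with 0.1 vol % spreader, was applied by small sprayer. Plants were rated by eye on days 17–23.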

redroot pigweed = experiment: Test Example 2: soil application on the day after sowing, growth inhibition rate, redroot pigweed; assay type: in vivo, Amaranthus retroflexus L.; conditions: 250 g/ha active ingredient, observed on 19th to 24th day; for inhibition at 250 g/ha: Amaranthus retroflexus
From the text: (§2) Upland field soil was put into a 1/170,000 hectare pot, and seeds of various plants (barnyardgrass, crabgrass, greenfoxtail, redroot pigweed, prickly sida, velvetleaf, rice, wheat, corn and soybean) were sown. On the day after sowing, wettable powders or emulsifiable concentrates of the compounds of the present invention prepared in accordance with a conventional preparation method, were weighed so that the active ingredients became the prescribed amounts, and diluted with water in an amount corresponding to 500 liter per 1 hectare, followed by soil application with a small sprayer. On the 19th to 24th day after the application, the state of growth of the respective plants was visually observed, and the herbicidal effect was evaluated in accordance with a growth inhibition rate (%) of from 0 (equivalent to the non-treated area) to 100% (complete kill).

[1] = test system: barnyardgrass (Echinochloa crus-galli L.); experiment: Test Example 1: foliar treatment, growth inhibition rate, barnyardgrass; assay type: in vivo; conditions: visually observed 17th to 23rd day after application; for pest or weed control at 31 g/ha: Echinochloa crus-galli
In short: as §1

rice = experiment: Test Example 2: soil application on the day after sowing, growth inhibition rate, rice; assay type: in vivo, Oryza sativa L.; conditions: 250 g/ha active ingredient, observed on 19th to 24th day; for inhibition at 250 g/ha: Oryza sativa
From the text: as §2

velvetleaf = experiment: Test Example 2: soil application on the day after sowing, growth inhibition rate, velvetleaf; assay type: in vivo, Abutilon theophrasti MEDIC.; conditions: 250 g/ha active ingredient, observed on 19th to 24th day; for inhibition at 250 g/ha: Abutilon theophrasti
From the text: as §2

[2] = test system: prickly sida (Sida spinosa L.); experiment: Test Example 1: foliar treatment, growth inhibition rate, prickly sida; assay type: in vivo; conditions: visually observed 17th to 23rd day after application
In short: (§3)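 Visual scoring of growth inhibition, 0% (untreated) to 100% (complete kill), on days 17–23 following post-emergence spray of formulated compound in water (500 L/ha, 0.1 vol % spreader); plants treated at set leaf stages, e.g. corn 2.0–3.5, wheat 1.7–3.4.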

soybean = experiment: Test Example 2: soil application on the day after sowing, growth inhibition rate, soybean; assay type: in vivo, Glycine max Merr.; conditions: 250 g/ha active ingredient, observed on 19th to 24th day
From the text: as §2

wheat (Triticum spp.) = experiment: Test Example 1: foliar treatment, growth inhibition rate, wheat; assay type: in vivo; conditions: visually observed 17th to 23rd day after application; for pest or weed control at 31 g/ha: Triticum
In short: as §1

crabgrass = experiment: Test Example 2: soil application on the day after sowing, growth inhibition rate, crabgrass; assay type: in vivo, Digitaria sanguinalis L.; conditions: 250 g/ha active ingredient, observed on 19th to 24th day; for inhibition at 250 g/ha: Digitaria sanguinalis
From the text: as §2

[3] = test system: redroot pigweed (Amaranthus retroflexus L.); experiment: Test Example 1: foliar treatment, growth inhibition rate, redroot pigweed; assay type: in vivo; conditions: visually observed 17th to 23rd day after application
In short: as §3

corn = experiment: Test Example 2: soil application on the day after sowing, growth inhibition rate, corn; assay type: in vivo, Zea mays L.; conditions: 250 g/ha active ingredient, observed on 19th to 24th day; for inhibition at 250 g/ha: Zea mays
From the text: as §2

[4] = test system: crabgrass (Digitaria sanguinalis L.); experiment: Test Example 1: foliar treatment, growth inhibition rate, crabgrass; assay type: in vivo; conditions: visually observed 17th to 23rd day after application; for pest or weed control at 31 g/ha: Digitaria sanguinalis
In short: as §3

corn (Zea mays L.) = experiment: Test Example 1: foliar treatment, growth inhibition rate, corn; assay type: in vivo; conditions: visually observed 17th to 23rd day after application; for pest or weed control at 31 g/ha: Zea mays
In short: as §1

[5] = test system: soybean (Glycine max Merr.); experiment: Test Example 1: foliar treatment, growth inhibition rate, soybean; assay type: in vivo; conditions: visually observed 17th to 23rd day after application
In short: as §3

barnyardgrass = experiment: Test Example 2: soil application on the day after sowing, growth inhibition rate, barnyardgrass; assay type: in vivo, Echinochloa crus-galli L.; conditions: 250 g/ha active ingredient, observed on 19th to 24th day; for inhibition at 250 g/ha: Echinochloa crus-galli
From the text: as §2

greenfoxtail = experiment: Test Example 2: soil application on the day after sowing, growth inhibition rate, greenfoxtail; assay type: in vivo, Setaria viridis L.; conditions: 250 g/ha active ingredient, observed on 19th to 24th day; for inhibition at 250 g/ha: Setaria viridis
From the text: as §2

[6] = test system: velvetleaf (Abutilon theophrasti MEDIC.); experiment: Test Example 1: foliar treatment, growth inhibition rate, velvetleaf; assay type: in vivo; conditions: visually observed 17th to 23rd day after application; for pest or weed control at 31 g/ha: Abutilon theophrasti
In short: as §1

prickly sida = experiment: Test Example 2: soil application on the day after sowing, growth inhibition rate, prickly sida; assay type: in vivo, Sida spinosa L.; conditions: 250 g/ha active ingredient, observed on 19th to 24th day; for inhibition at 250 g/ha: Sida spinosa
From the text: as §2

[7] = test system: greenfoxtail (Setaria viridis L.); experiment: Test Example 1: foliar treatment, growth inhibition rate, greenfoxtail; assay type: in vivo; conditions: visually observed 17th to 23rd day after application; for pest or weed control at 31 g/ha: Setaria viridis
In short: as §1

wheat = experiment: Test Example 2: soil application on the day after sowing, growth inhibition rate, wheat; assay type: in vivo, Triticum spp.; conditions: Triticum aestivum, 250 g/ha active ingredient, observed on 19th to 24th day
From the text: as §2

SMILES | Growth inhibition rate (%) Rice (rice (Oryza sativa L.); 63 g/ha active ingredient) | Growth inhibition rate (%) redroot pigweed (redroot pigweed) | Growth inhibition rate (%) Barnyardgrass ([1]; 63 g/ha active ingredient) | Growth inhibition rate (%) Rice (rice) | Growth inhibition rate (%) Velvetleaf (velvetleaf) | Growth inhibition rate (%) Prickly sida ([2]; 63 g/ha active ingredient) | Growth inhibition rate (%) Soybean (soybean) | Growth inhibition rate (%) Wheat (wheat (Triticum spp.); 63 g/ha active ingredient) | Growth inhibition rate (%) Crabgrass (crabgrass) | Growth inhibition rate (%) redroot pigweed ([3]; 63 g/ha active ingredient) | Growth inhibition rate (%) Corn (corn) | Growth inhibition rate (%) Crabgrass ([4]; 63 g/ha active ingredient) | Growth inhibition rate (%) Corn (corn (Zea mays L.); 63 g/ha active ingredient) | Growth inhibition rate (%) Soybean ([5]; 63 g/ha active ingredient) | Growth inhibition rate (%) Barnyardgrass (barnyardgrass) | Growth inhibition rate (%) Greenfoxtail (greenfoxtail) | Growth inhibition rate (%) Prickly sida (prickly sida) | Growth inhibition rate (%) Prickly sida ([2]; 31 g/ha active ingredient) | Growth inhibition rate (%) Soybean ([5]; 31 g/ha active ingredient) | Growth inhibition rate (%) redroot pigweed ([3]; 31 g/ha active ingredient) | further results
CCSC(=O)Oc1c(C(=O)c2ccc(S(C)(=O)=O)c(CSC#N)c2C)cnn1C [compound 231] | 50% | 50% | 100% | 0% | 0% | 40% | 0% | 0% | 60% | 80% | 0% | 70% | 0% | 100% | 70% | 0% | 0% |  |  |  | Growth inhibition rate (%) Velvetleaf ([6]; 63 g/ha active ingredient): 80%; Growth inhibition rate (%) Greenfoxtail ([7]; 63 g/ha active ingredient): 40%
CCSC(=O)Oc1c(C(=O)c2ccc(S(C)(=O)=O)c(OCCOC)c2C)cnn1CC [Compound No. 16, 5-(ethylthio)carbonyloxy-1-ethylpyrazol-4-yl 3-(2-methoxyethoxy)-2-methyl-4-(methylsulfonyl)phenyl ketone] |  |  |  |  |  |  |  |  |  |  |  |  |  |  |  |  |  | 40% | 95% |  | pest or weed control at 31 g/ha (rice (Oryza sativa L.); 31 g/ha active ingredient): 90%; inhibition at 250 g/ha (redroot pigweed): 100%; pest or weed control at 31 g/ha ([1]; 31 g/ha active ingredient): 100%; inhibition at 250 g/ha (rice): 98%; inhibition at 250 g/ha (velvetleaf): 0%; pest or weed control at 31 g/ha (wheat (Triticum spp.); 31 g/ha active ingredient): 0%; inhibition at 250 g/ha (crabgrass): 100%; inhibition at 250 g/ha (corn): 0%; pest or weed control at 31 g/ha ([4]; 31 g/ha active ingredient): 100%; pest or weed control at 31 g/ha (corn (Zea mays L.); 31 g/ha active ingredient): 0%; inhibition at 250 g/ha (barnyardgrass): 100%; inhibition at 250 g/ha (greenfoxtail): 98%; pest or weed control at 31 g/ha ([6]; 31 g/ha active ingredient): 100%; inhibition at 250 g/ha (prickly sida): 10%; pest or weed control at 31 g/ha ([7]; 31 g/ha active ingredient): 100%; inhibition at 250 g/ha (wheat): 0%
CCSC(=O)Oc1c(C(=O)c2ccc(S(C)(=O)=O)c(OC(C)COC)c2C)cnn1C (stereo not shown) [compound 236] |  | 100% |  | 70% | 0% |  | 0% |  | 95% |  | 0% |  |  |  | 98% | 10% | 30% | 40% | 95% | 90% | Growth inhibition rate (%) Rice (rice (Oryza sativa L.); 31 g/ha active ingredient): 80%; Growth inhibition rate (%) Barnyardgrass ([1]; 31 g/ha active ingredient): 60%; Growth inhibition rate (%) Wheat (wheat (Triticum spp.); 31 g/ha active ingredient): 0%; Growth inhibition rate (%) Crabgrass ([4]; 31 g/ha active ingredient): 50%; Growth inhibition rate (%) Corn (corn (Zea mays L.); 31 g/ha active ingredient): 0%; Growth inhibition rate (%) Velvetleaf ([6]; 31 g/ha active ingredient): 70%; Growth inhibition rate (%) Greenfoxtail ([7]; 31 g/ha active ingredient): 40%
CCSC(=O)Oc1c(C(=O)c2ccc(S(C)(=O)=O)c(S(C)(=O)=O)c2Cl)cnn1C [compound 224] | 20% | 100% | 95% | 98% | 70% | 70% | 50% | 0% | 100% | 95% | 10% | 60% | 0% | 100% | 100% | 98% | 75% |  |  |  | Growth inhibition rate (%) Velvetleaf ([6]; 63 g/ha active ingredient): 60%; Growth inhibition rate (%) Greenfoxtail ([7]; 63 g/ha active ingredient): 70%
CCSC(=O)Oc1c(C(=O)c2ccc(S(C)(=O)=O)c(C(=O)OC)c2C)cnn1CC [Compound No. 2, 1-ethyl-5-(ethylthio)carbonyloxypyrazol-4-yl 3-(methoxycarbonyl)-2-methyl-4-(methylsulfonyl)phenyl ketone] |  |  |  |  |  |  |  |  |  |  |  |  |  |  |  |  |  | 95% |  | 95% | pest or weed control at 31 g/ha (rice (Oryza sativa L.); 31 g/ha active ingredient): 95%; inhibition at 250 g/ha (redroot pigweed): 100%; pest or weed control at 31 g/ha ([1]; 31 g/ha active ingredient): 95%; inhibition at 250 g/ha (rice): 100%; inhibition at 250 g/ha (velvetleaf): 60%; pest or weed control at 31 g/ha (wheat (Triticum spp.); 31 g/ha active ingredient): 30%; inhibition at 250 g/ha (crabgrass): 100%; inhibition at 250 g/ha (corn): 0%; pest or weed control at 31 g/ha ([4]; 31 g/ha active ingredient): 90%; pest or weed control at 31 g/ha (corn (Zea mays L.); 31 g/ha active ingredient): 10%; inhibition at 250 g/ha (barnyardgrass): 100%; inhibition at 250 g/ha (greenfoxtail): 98%; pest or weed control at 31 g/ha ([6]; 31 g/ha active ingredient): 95%; inhibition at 250 g/ha (prickly sida): 95%; pest or weed control at 31 g/ha ([7]; 31 g/ha active ingredient): 100%; inhibition at 250 g/ha (wheat): 40%
CCCSC(=O)Oc1c(C(=O)c2ccc(S(C)(=O)=O)c(OCCOC)c2C)cnn1CC [compound 235] |  | 100% |  | 100% | 20% |  | 0% |  | 100% |  | 0% |  |  |  | 100% | 100% | 98% | 50% | 100% | 100% | Growth inhibition rate (%) Rice (rice (Oryza sativa L.); 31 g/ha active ingredient): 90%; Growth inhibition rate (%) Barnyardgrass ([1]; 31 g/ha active ingredient): 100%; Growth inhibition rate (%) Wheat (wheat (Triticum spp.); 31 g/ha active ingredient): 40%; Growth inhibition rate (%) Crabgrass ([4]; 31 g/ha active ingredient): 100%; Growth inhibition rate (%) Corn (corn (Zea mays L.); 31 g/ha active ingredient): 30%; Growth inhibition rate (%) Velvetleaf ([6]; 31 g/ha active ingredient): 100%; Growth inhibition rate (%) Greenfoxtail ([7]; 31 g/ha active ingredient): 100%
